Test results published in patent US8802240B2, “Uses of formulations of thyroid hormone analogs and nanoparticulate forms thereof to increase chemosensitivity and radiosensitivity in tumor or cancer cells” (Nanopharmaceuticals LLC, priority 2011, dated 2014).

Assays:
human cancer xenografts = details: in vivo; cited from earlier work
[1] = tested on: GL261 murine brain tumor cells; assay: GL261 clonogenic survival after single doses of 250 kVp x-rays; assay type: cell-based
Procedure: To irradiate 25 cm^2 flasks, an x-ray machine was used and (Philips 250 kVp Therapeutic X-ray Machine, Einhoven, […]) operated at 250 kVp and 15 mA with added filtration of 0.4 mm Thoreaus filter. The target to source distance was approximately 30 cm. Dose rates were measured using an R-meter (Victoreen R-meter, Cleveland, Ohio), and converted to absorbed (Gy) doses using appropriate temperature, pressure, and R to Gy conversion factors. The dose rate was 1 Gy per min. Flasks were irradiated at ambient temperature.
For […] analyses, survival data lying at or below 36.8% survival were analyzed by using the log fractional survival (log F×S) versus dose (D). Data were fit using linear regression analysis (SigmaPlot, V. 10, Systat Corp., Point Richmond, Calif.) to obtain the Y-intercept (or n, the extrapolation number) and the slope (1/D0), and their 95% confidence limits. (See Goldstein, A. In: Biostatistics, New York, The MacMillan Co., 1964, p. 140-146). The D0 value (Gy) is defined as the inverse of the slope, and the corrected Dq value (Gy) was then defined using the relationship: Dq(Gy)=ln n×D0(Gy) The 95% confidence limits on Dq were defined using error propagation. (See Chase, et al., In: Principles of Radioisotope Methodology. Minneapolis, Minn. Burgess Publ. Co., 1962, p. 68, 87-90). Statistics: LQ Analysis
For LQ analyses, data lying between a fractional survival of 1.00 and 0.05 were used. The fractional survival data at each dose were transformed using the relationship (−ln F×S/D) and plotted against dose (D). A regression analysis was performed to yield the LQ equation along with their 95% confidence limit values using a t-table with the appropriate (N−1) degrees of freedom. (See Goldstein, A. In: Biostatistics, New York, The MacMillan Co., 1964, p. 140-146).
To determine the Tetrac modification factor (TMF), the survival at 2 Gy obtained for control cells was divided by the survival at 2 Gy for Tetrac treated cells. The 95% confidence limits on the ratio were determined using error propagation techniques. (See Chase, et al. In: Principles of Radioisotope Methodology, Minneapolis, Minn., Burgress Publ. Co., 1962, p. 68, 87-90).

For `O=C(O)Cc1cc(I)c(Oc2cc(I)c(O)c(I)c2)c(I)c1` [Tetrac, tetraiodothyroacetic acid], which “systemic toxicity (in words)” value (human cancer xenografts) is on record?
Its value is “have not to-date shown systemic toxicity”.

And the “sensitization of oxic and hypoxic cells (in words)” value ([1]; 2 μM, graded doses of 250 kVp x-rays)?
Its value is “sensitize both oxic and hypoxic cells equally”.

What about the “SF2 (fractional survival at 2 Gy)” value ([1]; exponential phase with Tetrac, control 32.7) of the same compound?
The value was 14.2 (10.8-18.8) %.

And the “increase of the D0 value after addition of Tetrac” value ([1]; exponentially growing cells)?
The value was 15%.

And the “reduction of the Dq value after addition of Tetrac” value ([1]; exponentially growing cells)?
The value was 100%.

What about the “reduction of the extrapolation number n after addition of Tetrac” value ([1]; exponentially growing cells) of the same compound?
Its value is 93%.

What about the “reduction of n after addition of Tetrac” value ([1]; plateau phase cells) of the same compound?
The value was 93%.

And the “reduction of the D0 after addition of Tetrac” value ([1]; plateau phase cells)?
Its value is 6%.

What about the “reduction of the Dq after addition of Tetrac” value ([1]; plateau phase cells) of the same compound?
The value was 100%.

What about the “SF2 (fractional survival at 2 Gy)” value ([1]; unfed plateau phase with Tetrac, control 20.6) of the same compound?
Its value is 7.6%.
